Each structure is given as a SMILES string.

Test [1] addresses plasmepsin II (Plasmodium falciparum, UniProt Q8I6V3). The experiment in a line: FRET assay for plasmepsin II. Conditions: pH 5, 37° C., substrate M-2120 1 μM. The test is classed as biochemical. The procedure: (§1) The Fluorescence Resonance Energy Transfer (FRET) Assay for Plasmepsin II & IV and Human Cathepsin D & E:
(§2) The assay conditions are selected according to reports in the literature.
(§3) The FRET assay is performed in white polysorp plates (Fluoronunc, cat no 264 572) at 37° C. with a final volume of 80 μl.
(§4) The assay buffer is composed of 50 mM sodium acetate pH 5, 12.5% (w/v) glycerol, and 0.1% (w/v) BSA. The reaction consists of the following components: 60 μl assay buffer, 4 μl inhibitor (in DMSO), 8 μl substrate (M-2120 from BACHEM) to a final concentration of 1 μM and 8 μl enzyme (plasmepsin II, plasmepsin IV or cathepsin E to a final amount of 0.015 μg/ml per assay tube, cathepsin D to a final amount of 0.05 μg/ml per assay tube). The inhibitor is pre-diluted in DMSO in a dilution plate and six concentrations are prepared in duplicate. The compounds are usually tested at a final concentration varying from 1 nM to 100 μM. The substrate is diluted using 50% DMSO-50% assay buffer and the enzyme using assay buffer. The mixtures are then incubated for 3 h at 37° C. and the fluorescence is determined at 1 and 3 hour with a FluoroStar Galaxy from BMG using excitation and emission filters of 355 and 520 nm, respectively.
(§5) Auto-fluorescence of all the test substances is determined in assay buffer in the absence of substrate and enzyme and this value is subtracted from the final signal.
(§6) The inhibitory activity of the compounds is expressed as IC50, which represents the concentration of compound that inhibits 50% of the maximal (uninhibited) enzyme activity.

Test [2] deals with plasmepsin IV (Plasmodium falciparum, UniProt Q8IM16). The experiment in a line: FRET assay for plasmepsin IV. The test is classed as biochemical. Conditions: pH 5, 37° C., substrate M-2120 1 μM. The procedure:
as §1, §2, §3, §4, §5, §6

Chain of plasmepsin IV (Q8IM16 122-449): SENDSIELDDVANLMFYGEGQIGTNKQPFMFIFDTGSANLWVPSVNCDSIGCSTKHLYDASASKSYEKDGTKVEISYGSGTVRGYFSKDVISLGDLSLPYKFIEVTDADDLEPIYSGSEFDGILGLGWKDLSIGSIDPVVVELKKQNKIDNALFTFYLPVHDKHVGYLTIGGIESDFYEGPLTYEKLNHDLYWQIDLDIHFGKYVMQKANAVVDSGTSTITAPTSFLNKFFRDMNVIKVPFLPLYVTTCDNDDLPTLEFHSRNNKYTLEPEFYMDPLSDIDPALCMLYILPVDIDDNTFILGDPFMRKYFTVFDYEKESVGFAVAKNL
Chain of plasmepsin II (Q8I6V3 125-453): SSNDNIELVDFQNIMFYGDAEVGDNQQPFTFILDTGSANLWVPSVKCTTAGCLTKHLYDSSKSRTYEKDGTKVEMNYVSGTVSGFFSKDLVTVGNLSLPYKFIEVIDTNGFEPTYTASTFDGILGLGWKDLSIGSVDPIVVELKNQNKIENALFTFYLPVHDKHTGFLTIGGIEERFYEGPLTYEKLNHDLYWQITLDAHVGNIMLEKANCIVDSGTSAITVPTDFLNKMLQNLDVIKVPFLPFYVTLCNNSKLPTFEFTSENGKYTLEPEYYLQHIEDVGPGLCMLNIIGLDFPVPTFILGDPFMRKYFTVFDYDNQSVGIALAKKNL

Usually IC50 stands for the concentration that gives 50% inhibition. A high value points to a need for much substance. With `CCCCCc1ccc(C(=O)N(Cc2ccc(-c3ccc(C(=O)N4CCCCC4)cc3)cc2)C2CCN(CCC(C)C)CC2)s1` [Example 88], the half-maximal inhibitory concentration (IC50) in test [1] was found to be 77 nM.

For the molecule `CCCCCc1ccc(C(=O)N(Cc2ccc(-c3ccc(C(=O)N4CCCCC4)cc3)cc2)C2CCN(CCC(C)C)CC2)nc1` [Example 163], the IC50 in test [1] was determined as 10 nM; in test [2] it was 635 nM.

Turning to `CCCCCc1ccc(C(=O)N(Cc2ccc(-c3cccc(C)c3)cc2)C2CCN(CCC(C)C)CC2)nc1` [Example 166, 5-Pentyl-pyridine-2-carboxylic acid (3′-methyl-biphenyl-4-ylmethyl)-[1-(3-methyl-butyl)-piperidin-4-yl]-amide], the IC50 turned out to be 16 nM in test [1] and 22 nM in test [2].

For the molecule `CCCCCc1ccc(C(=O)N(Cc2ccc(-c3ccc(Cl)c(Cl)c3)o2)C2CCN(CCC(C)C)CC2)cc1` [Example 220, N-[5-(3,4-dichloro-phenyl)-furan-2-ylmethyl]-N-[1-(3-methyl-butyl)-piperidin-4-yl]-4-pentyl-benzamide], the IC50 in test [1] is 41 nM; in test [2] it was 56 nM.

With `CCCCCc1ccc(C(=O)N(Cc2ccc(C(=O)NCc3c(F)cccc3F)cc2)C2CCN(CCC(C)C)CC2)nc1` [Example 223, 5-Pentyl-pyridine-2-carboxylic acid [4-(2,6-difluoro-benzylcarbamoyl)-benzyl]-[1-(3-methyl-butyl)-piperidin-4-yl]-amide], the values for the IC50 in test [1] and in test [2] were 40 nM and 1110 nM, respectively.

Consider `CCCCCc1ccc(C(=O)N(Cc2ccc(N3CCSCC3)nc2)C2CCN(CCC(C)C)CC2)nc1` [Example 226], for which the results for the IC50 in test [1] and in test [2] were 51 nM and 359 nM, respectively.

Source of the values: patent US20080076762A1, “Novel 4-Aminopiperidine Derivatives” (priority 2004, published 2008).
